Measurements as given in article PMC11204085, “Molecular Characterization of Chemosensory Protein (CSP) Genes and the Involvement of AgifCSP5 in the Perception of Host Location in the Aphid Parasitoid Aphidius gifuensis” (International Journal of Molecular Sciences, 2024).
“Also recorded” adds a separate entry of the source. Where two headings read alike, the source gives them in different places. Values belong to the molecule of their own block, whether it stands above or below them.

How the values were obtained:
[1] = molecular target: AgifCSP5 (Aphidius gifuensis, UniProt A0A3Q9ELG9); assay: Fluorescence competitive binding assay with 1-NPN probe, wild-type AgifCSP5; conditions: for Binding affinity in words: wild-type AgifCSP5
Chain of AgifCSP5 (A0A3Q9ELG9 entry or part of it): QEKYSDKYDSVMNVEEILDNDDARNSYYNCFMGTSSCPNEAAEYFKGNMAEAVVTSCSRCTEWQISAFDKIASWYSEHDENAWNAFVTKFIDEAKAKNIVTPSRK
Excerpt: (§1) The candidate VOCs were mainly derived from various organic volatiles in wheat field habitats, referring to the compounds related to wheat plants and wheat aphids previously reported in a published paper by Jiang et al. in 2022 and 2023 [11, 12], including four groups of ligands: (1) aphid alarm pheromone components; (2) aphid sex pheromone; (3) green leaf volatiles of wheat; and (4) aphid-induced plant volatiles. […] The classes, CAS numbers, and purities of the chemicals used in these assays are listed in Appendix B. A Lengguang 970CRT spectrofluorimeter (Shanghai Jingmi, Shanghai, China) equipped with a 1 cm light path fluorimeter quartz cuvette was used to record the fluorescence intensity at room temperature with the following parameters: the excitation wavelength was set at 337 nm, the emission light wavelength was recorded at 350–500 nm, the high-speed scan mode was used, and the slit width was 10 nm. To determine the binding affinity of 1-NPN for AgifCSP5 proteins, a 2 µM protein solution diluted with 50 mM Tris-HCl at pH 7.4 was titrated with aliquots of the 1 mM 1-NPN stock solution to final concentrations ranging from 2–40 μM. Ligands bound to AgifCSP5 have a protein:ligand ratio of 1:1. Three independent repeats were carried out for all measurements. The binding affinity of AgifCSP5 for all ligands was calculated by the formula Ki = [IC50]/(1 + [1 − NPN]/K1-NPN), where the IC50 is defined as the concentration of a competitor that caused a 50% reduction in fluorescence intensity, K1-NPN is the dissociation constant (Kd) of the AgifCSP5/1-NPN complex, and [1-NPN] is the free concentration of 1-NPN.

[2] = molecular target: R24A mutant of AgifCSP5 (Aphidius gifuensis, UniProt A0A3Q9ELG9, R44A); assay: Fluorescence competitive binding assay, R24A mutant
Chain of R24A mutant of AgifCSP5 (A0A3Q9ELG9 entry or part of it R44A): as the sequence (A0A3Q9ELG9 entry or part of it) above, with R24A counted along it
Excerpt: as §1
(§2) The mutagenesis primers for the targeted key amino acid residues were designed online (https://crm.vazyme.com/cetool/singlepoint.html (accessed on 24 December 2023)) according to the protocols of the Mut Express II Fast Mutagenesis Kit V2 (Vazyme, China) (Appendix B). Mutations were obtained by using Phanta Max Superfidelity DNA Polymerase with recombinant Plasmid pET-30a/AgifCSP5 plasmid DNA as a template. The plasmids of the mutants were verified by DNA sequencing. The mutated proteins were then expressed and purified, as described above. After protein concentration determination, the binding affinities of the mutants with ligands that previously bound well to the AgifCSP5 protein were verified using fluorescence competitive binding assays.

[3] = molecular target: Y75A mutant of AgifCSP5 (Aphidius gifuensis, UniProt A0A3Q9ELG9, Y95A); assay: Fluorescence competitive binding assay, Y75A mutant
Chain of Y75A mutant of AgifCSP5 (A0A3Q9ELG9 entry or part of it Y95A): as the sequence (A0A3Q9ELG9 entry or part of it) above, with Y75A counted along it
Excerpt: as §1, §2

[4] = tested on: A. gifuensis adults; assay: Y-tube olfactometer assay; type: in vivo, Aphidius gifuensis
Method: The behavioral responses of A. gifuensis to volatiles were tested using a Y-tube olfactometer (3.5 cm in diameter, arms 20 cm in length, and a stem 20 cm in length). The assay method was described by Guo et al., and minor improvements were made. The incoming air at a constant flow (300 mL/min) was first filtered using allochroic silica gel and activated carbon and then humidified with ultrapure water. The test compounds were serially diluted with paraffin oil to concentrations of 0.01, 0.1, 1, 10, and 100mg/mL. A total of 10 μL of tested volatile oil preloaded onto 1 cm diameter filter paper was placed in the chamber of the chosen treatment arm of the Y-tube olfactometer, and the same filter paper in another chamber of the chosen control arm was loaded with 10 μL of liquid paraffin. The choice of each adult introduced into the Y-tube stem within 5 min was recorded. The experiments were performed in a dark room at room temperature (25 ± 1 °C), and a light-emitting diode installed at 30 cm was used as the light source. In total, no fewer than 60 adults (at least 30 from each sex) were used in each treatment. After 5 insects were tested, we switched the positions of the volatile arm and the control arm, and after a total of 10 insects were tested, the Y-tube olfactometer was washed with 75% ethanol and air-dried.

[5] = wild-type AgifCSP5, 1-NPN displacement, pH 7.4, read-out: IC50
[6] = wild-type AgifCSP5, 1-NPN displacement, pH 7.4, read-out: Ki

SMILES: CCCCCCCCCCCCCCCCCO [1-Heptadecanol]
- IC50 [1]: 21.4 ± 1.07 µM
- Ki [1]: 15.8 ± 0.79 µM

SMILES: c1ccc(Nc2cccc3ccccc23)cc1 [1-NPN, N-phenyl-1-naphthylamine, reference compound]
- Kd [1]: 3.64 µM
- Kd [2]: 14.4 µM
- Kd [3]: 3.13 µM

- IC50 [1]: 24.5 ± 1.43 µM
- Ki [1]: 18.2 ± 1.06 µM
SMILES: CC(=O)CCC=C(C)C [6-Methyl-5-hepten-2-one]

SMILES: CC1=CC[C@@H]2C[C@H]1C2(C)C [(1R)-(+)-α-Pinene]
- IC50 [1]: 22.5 ± 2.42 µM
- Ki [1]: 16.7 ± 1.79 µM

SMILES: CC1=CCC(C(C)(C)O)CC1 (stereo not drawn) [(+)-α-Terpineol]
- IC50 [1, 5]: 29.4 ± 1.6 µM
- Ki [1, 6]: 21.8 ± 1.19 µM

SMILES: C=CC(=C)CC/C=C(\C)CCC=C(C)C [(E)-β-Farnesene]
- Binding affinity in words [1]: weakly binds
- IC50 [1, 5]: 25.9 ± 1.16 µM
- Ki [1, 6]: 19.2 ± 0.86 µM
- Binding affinity in words ([1]; listed as EBF): weak binding affinities

SMILES: C=C(C)[C@H]1CC=C(C)CC1 [(R)-(+)-Limonene]
- IC50 [1, 5]: 25.2 ± 4.06 µM
- Ki [1, 6]: 18.7 ± 3.01 µM

SMILES: C=C(C)[C@@H]1CC=C(C)C(=O)C1 [(R)-(−)-Carvone]
- IC50 [1]: 23 ± 0.91 µM
- Ki [1]: 17 ± 0.67 µM

SMILES: C=C(C)[C@@H]1CC=C(C)CC1 [(S)-(−)-Limonene]
- IC50 [1, 5]: 28.4 ± 2.84 µM
- Ki [1, 6]: 21 ± 2.1 µM

SMILES: C=C/C(C)=C\CC=C(C)C [(Z)-β-ocimene]
- IC50 [1, 5]: 18 ± 2.89 µM
- Ki [1, 6]: 13.3 ± 2.14 µM
- IC50 ([2]; R24A mutant, read-out: IC50): 18.2 ± 1.97 µM
- Ki ([2]; R24A mutant, read-out: Ki): 16.7 ± 2.73 µM
- IC50 ([3]; Y75A mutant, read-out: IC50): 30.8 ± 7.87 µM
- Ki ([3]; Y75A mutant, read-out: Ki): 21.9 ± 5.59 µM
- Behavioral response in words ([4]; 100 mg/mL): significantly repelled; also recorded: repellent effects
- Behavioral response in words ([4]; low concentrations): did not show any repelling or attracting activity

SMILES: COc1cc(C(C)=O)cc(OC)c1O [Acetosyringone]
- IC50 [1]: 36.9 ± 6.77 µM
- Ki [1]: 27.3 ± 5.01 µM

SMILES: O=Cc1ccccc1 [Benzaldehyde]
- IC50 [1]: 18.2 ± 0.88 µM
- Ki [1]: 13.5 ± 0.65 µM
- IC50 [2]: 17.3 ± 3.62 µM
- Ki [2]: 15.8 ± 3.33 µM
- IC50 [3]: > 40 µM
- Behavioral response in words ([4]; 100 mg/mL): significantly repelled; also recorded: repellent effects; also recorded: strongly repelled
- Behavioral response in words ([4]; low concentrations): did not show any repelling or attracting activity

SMILES: OCc1ccccc1 [Benzyl alcohol]
- IC50 [1]: 22.4 ± 4.58 µM
- Ki [1]: 16.6 ± 3.39 µM

SMILES: CC(=O)OC/C=C(\C)CCC=C(C)C [Geranyl acetate]
- IC50 [1]: 27.3 ± 4.87 µM
- Ki [1]: 20.2 ± 3.61 µM

SMILES: CCCCCCCCCCCCCCCCCCCCC [Heneicosane]
- IC50 [1]: 22.5 ± 2.42 µM
- Ki [1]: 16.7 ± 1.79 µM

SMILES: CC/C=C\CCO [Leaf alcohol]
- IC50 [1, 5]: 27.9 ± 0.8 µM
- Ki [1, 6]: 20.6 ± 0.59 µM

SMILES: C=CC(C)(O)CCC=C(C)C (stereo not shown) [Linalool]
- IC50 [1]: 25.5 ± 3.46 µM
- Ki [1]: 18.9 ± 2.56 µM

SMILES: CC/C=C\CC1C(=O)CCC1CC(=O)OC (stereo not shown) [Methyl jasmonate]
- IC50 [1]: 20.1 ± 1.92 µM
- Ki [1]: 14.9 ± 1.42 µM
- IC50 [2]: 8.89 ± 0.95 µM
- Ki [2]: 8.16 ± 0.87 µM
- Binding affinity of R24A compared with wild type, in words ([2]; R24A mutant): increased the binding affinity; also recorded: increased affinities
- IC50 [3]: 29.7 ± 1.06 µM
- Ki [3]: 21.1 ± 0.75 µM

SMILES: COC(=O)c1ccccc1O [Methyl salicylate]
- IC50 [1]: 20.6 ± 3.58 µM
- Ki [1]: 15.3 ± 2.65 µM

SMILES: C=CC(=C)CCC=C(C)C [Myrcene]
- IC50 [1]: 22.5 ± 2.51 µM
- Ki [1]: 16.7 ± 1.86 µM

SMILES: CC1=COC(=O)C2C(C)CCC12 (stereo not shown) [Nepetalactone]
- Binding affinity in words [1]: weakly binds
- IC50 [1, 5]: 33.8 ± 6.81 µM
- Ki [1, 6]: 25 µM
- Binding affinity in words ([1]; listed as nephelactone): weak binding affinities

SMILES: CCCCCCCCCCCCCCCCCCC [Nonadecane]
- IC50 [1]: 38.9 ± 7.44 µM
- Ki [1]: 28.8 ± 5.51 µM

SMILES: C=C1CCC2(C(C)C)CC12 (stereo not shown) [Sabinene]
- IC50 [1]: 16.4 ± 0.94 µM
- Ki [1]: 12.1 ± 0.69 µM
- IC50 [2]: 22.4 ± 14.6 µM
- Ki [2]: 20.6 ± 13.4 µM
- IC50 [3]: 26.2 ± 11.6 µM
- Ki [3]: 18.6 ± 8.23 µM
- Behavioral response in words ([4]; 10 mg/mL): significantly repelled only males
- Behavioral response in words ([4]; 100 mg/mL): significantly repelled; also recorded: repellent effects
- Behavioral response in words ([4]; low concentrations): did not show any repelling or attracting activity

SMILES: CCCCCCCCCCCCCC=O [Tetradecanal]
- IC50 [1]: 20.6 ± 2.11 µM
- Ki [1]: 15.3 ± 1.57 µM
- Binding affinity of R24A compared with wild type, in words ([2]; R24A mutant): increased the binding affinity

SMILES: CCCCCCCCCCCCC [Tridecane]
- IC50 [1]: > 40 µM

SMILES: CCC/C=C\CO [cis-2-Hexen-1-ol]
- IC50 [1]: 34.5 ± 2.09 µM
- Ki [1]: 25.6 ± 1.55 µM

SMILES: CC/C=C\CCO [cis-3-Hexen-1-ol]
- IC50 [1]: 23.4 ± 5.54 µM
- Ki [1]: 17.3 ± 4.1 µM

SMILES: CC/C=C\CC=O [cis-3-Hexenal]
- IC50 [1]: 29.8 ± 1.55 µM
- Ki [1]: 22 ± 1.15 µM

SMILES: CC/C=C\CCOC(C)=O [cis-3-Hexenyl acetate]
- IC50 [1]: 24.5 ± 0.49 µM
- Ki [1]: 18.2 ± 0.36 µM

SMILES: CCCC/C=C\CCO [cis-3-Octen-1-ol]
- IC50 [1]: 17 ± 1.08 µM
- Ki [1]: 12.6 ± 0.8 µM
- IC50 [2]: 18.9 ± 9.83 µM
- Ki [2]: 17.4 ± 9.03 µM
- IC50 [3]: 22.9 ± 6.68 µM
- Ki [3]: 16.3 ± 4.75 µM
- Behavioral response in words ([4]; 10 mg/mL): significantly repelled only males
- Behavioral response in words ([4]; 100 mg/mL): significantly repelled; also recorded: repellent effects
- Behavioral response in words ([4]; low concentrations): did not show any repelling or attracting activity

SMILES: CCC/C=C/C=O [trans-2-Hexen-1-al]
- IC50 [1]: 18.1 ± 1.18 µM
- Ki [1]: 13.4 ± 0.87 µM
- IC50 [2]: 15 ± 8.09 µM
- Ki [2]: 13.8 ± 7.43 µM
- IC50 [3]: 14.6 ± 5.42 µM
- Ki [3]: 10.4 ± 3.85 µM
- Behavioral response in words ([4]; 10 mg/mL): obviously repelled
- Behavioral response in words ([4]; 100 mg/mL): significantly repelled; also recorded: repellent effects
- Behavioral response in words ([4]; 100 mg/mL, listed as trans-2-hexenal): strongly repelled
- Behavioral response in words ([4]; low concentrations): did not show any repelling or attracting activity

SMILES: CCCCCC/C=C/C=O [trans-2-Nonenal]
- IC50 [1]: 16.6 ± 1.78 µM
- Ki [1]: 12.3 ± 1.31 µM
- IC50 [2]: 25.9 ± 16.4 µM
- Ki [2]: 23.7 ± 15 µM
- IC50 [3]: > 40 µM
- Behavioral response in words ([4]; 10 mg/mL): significantly attracted only female adults; also recorded: attractive
- Behavioral response in words ([4]; 100 mg/mL): significantly repelled
